US8815891B2, “Tricyclic derivative or pharmaceutically acceptable salts thereof, preparation method thereof, and pharmaceutical composition containing the same” (Je Il Pharmaceutical Co., Ltd., priority 2008, dated 2014)
Structures can show the parent of a compound that is named as a salt. Where two headings read alike, the source gives them in different places.

Key:
MCF-7 Cell line = assay: Cell growth inhibition of cancer cell lines (SRB assay), MCF-7; type: cell-based; settings: for SN-38 PF50 / Temozolomide PF50: 2 μM compound; for GI50: Homo sapiens, MCF7, 72 hours
Procedure: (§1) The tests on cell growth inhibitory activity were performed with respect to A549 (US, ATCC), SK-OV-3 (Korea Research Institute of Chemical Technology; KRICT), HT-29 (US, ATCC), MCF-7 cell (US, ATCC), using Sulforhodamin-B <SRB> Assay (1989, US National Cancer Institute (NCI)) which was developed to measure the in vitro anti-cancer activity of the drug. […] The samples of the compounds of the Examples according to the present invention were used for the tests, and before the tests, the samples were dissolved in dimethylsulfoxide and diluted with the culture medium (RPMI 1640) to be used. The final concentration of the sample was varied in the range of 0.3˜100 μM. After the culture medium was removed from the 96 well plates, the diluted sample solution was added by 100 μl, and cultured in 37° C., 5% CO2 culture medium for 72 hours. The time zero (Tz) plates were collected at the time point of adding the sample. Upon completing the culture, the medium was removed from each well along with Tz plate, then cold 10% trichloroacetic acid (TCA) was added by 100 μl per well. The wells were left at 4° C. for 1 hour, so that the cells were fixed into the bottom of the plates. After the cells were fixed, the plates were rinsed with water five to six times to remove the remaining trichloroacetic acid solution, and moisture was completely dried at room temperature. The cells were dyed for 30 minutes by adding the dye solution in which 0.4% sulforhodamine-B was dissolved in 1% acetic acid solution, by 100 μl per dried wells. The above was rinsed again with 1% acetic acid solution five to six times to ensure that sulforhodamine-B which had not attached to the cells was removed. The plates were again dried at room temperature. 100 μl of 10 mM tris-buffer was then added to dissolve the dye, and the optical density (OD) at 520 nm was measured with the microplate reader. GI50 of the sample regarding cancer cell was calculated as explained below. Time zero (Tz), control value (C) and test value (T) were obtained, in which Tz corresponds to OD value of time at which the sample is applied and culture is started, C corresponds to OD value of the well which is cultured without treatment with the sample, and T corresponds to OD value of the well which is treated with the sample and then cultured. The degree of cell growth inhibition of the sample was measured using: If […] [Mathematical Formula 1]
(§2) Further, the ability of Examples 2, 42, 49, 52, 72, 74, 101 to increase growth inhibition effect of temozolomide and SN-38 at 2 μM was determined.

PARP-1 enzyme [1] = target: PARP-1 enzyme (Homo sapiens (Human), UniProt P09874); assay: Poly(ADP-ribose)polymerase [PARP-1] enzyme inhibitory activity (Trevigen PARP Assay kit); type: biochemical; settings: read-out: PARP-1 Inhibitory activity IC50
How it was run: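 On histone-coated plates, PARP-1 (0.12 unit/well) reacted with compound for 30 min at 25 °C in a 2× cocktail of 1.95 mM NAD+, 50 μM biotinylated NAD+ and activated DNA (Tris pH 8.0, 25 mM MgCl2). Biotin-ribosylated histone was detected with streptavidin-HRP and TACS-Sapphire substrate, stopped with HCl and read at 450 nm.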

PARP-1 enzyme [2] = target: PARP-1 enzyme (Cricetulus griseus (Chinese hamster) (Cricetulus barabensis griseus), UniProt Q9R152); assay: Intracellular PARP inhibitory activity (NAD(P)H released by MMS-treated CHO-K1 cells); type: cell-based
Procedure: In order to verify the ability of the compounds of the present invention to inhibit the PARP-1 enzyme activity, the amount of NAD(P)H accumulated on cell culture medium was measured.
The Chinese hamster ovary cells (CHO-K1) were cultured in RPMI1640 culture medium containing 10% fetal bovine serum (FBS). The cultured CHO-K1 cells were seeded into 96 well plate by 2.9×10^3 cells/well, and cultured for 16 hours under culture condition of 37° C., 5% CO2. After the culture, the cells were treated with the compounds of the Examples at varying concentrations, and cultured at 37° C. for 2 hours. […] The amount of […] released to the culture medium 3, 4, 5 hours after the treatment with MMS was quantified at 450 nm using Wallac EnVision™ (PerkinElmer Oy, Turku, Finland). The transference numbers of the compounds at varying concentrations according to the present invention are the average values obtained from four wells, and the results were calculated using regression analysis.
The Chinese hamster ovary cells (CHO-K1) were treated with the compounds at varying concentration according to the present invention, and the amount of NAD(P)H released into the culture medium 4 hours after the MMS treatment was quantified.

HT-29 Cell line = assay: Cell growth inhibition of cancer cell lines (SRB assay), HT-29; type: cell-based; settings: for SN-38 PF50 / Temozolomide PF50: 2 μM compound; for GI50: Homo sapiens, 72 hours
Procedure: as §1, §2

A549 cell line = assay: Cell growth inhibition of cancer cell lines (SRB assay), A549; type: cell-based; settings: for SN-38 PF50 / Temozolomide PF50: 2 μM compound; for SN-38 PF50: GI50 SN-38 alone / GI50 with compound; for Temozolomide PF50: GI50 temozolomide alone / GI50 with compound; for GI50: Homo sapiens, 72 hours
Procedure: as §1, §2

SK-OV-3 Cell line = assay: Cell growth inhibition of cancer cell lines (SRB assay), SK-OV-3; type: cell-based; settings: for SN-38 PF50 / Temozolomide PF50: 2 μM compound; for GI50: Homo sapiens, 72 hours
Procedure: as §1, §2

[3] = PARP-1 enzyme, histone ribosylation, 450 nm

PARP-1 enzyme (Cricetulus griseus (Chinese hamster) (Cricetulus barabensis griseus), UniProt Q9R152), sequence (Q9R152 whole entry): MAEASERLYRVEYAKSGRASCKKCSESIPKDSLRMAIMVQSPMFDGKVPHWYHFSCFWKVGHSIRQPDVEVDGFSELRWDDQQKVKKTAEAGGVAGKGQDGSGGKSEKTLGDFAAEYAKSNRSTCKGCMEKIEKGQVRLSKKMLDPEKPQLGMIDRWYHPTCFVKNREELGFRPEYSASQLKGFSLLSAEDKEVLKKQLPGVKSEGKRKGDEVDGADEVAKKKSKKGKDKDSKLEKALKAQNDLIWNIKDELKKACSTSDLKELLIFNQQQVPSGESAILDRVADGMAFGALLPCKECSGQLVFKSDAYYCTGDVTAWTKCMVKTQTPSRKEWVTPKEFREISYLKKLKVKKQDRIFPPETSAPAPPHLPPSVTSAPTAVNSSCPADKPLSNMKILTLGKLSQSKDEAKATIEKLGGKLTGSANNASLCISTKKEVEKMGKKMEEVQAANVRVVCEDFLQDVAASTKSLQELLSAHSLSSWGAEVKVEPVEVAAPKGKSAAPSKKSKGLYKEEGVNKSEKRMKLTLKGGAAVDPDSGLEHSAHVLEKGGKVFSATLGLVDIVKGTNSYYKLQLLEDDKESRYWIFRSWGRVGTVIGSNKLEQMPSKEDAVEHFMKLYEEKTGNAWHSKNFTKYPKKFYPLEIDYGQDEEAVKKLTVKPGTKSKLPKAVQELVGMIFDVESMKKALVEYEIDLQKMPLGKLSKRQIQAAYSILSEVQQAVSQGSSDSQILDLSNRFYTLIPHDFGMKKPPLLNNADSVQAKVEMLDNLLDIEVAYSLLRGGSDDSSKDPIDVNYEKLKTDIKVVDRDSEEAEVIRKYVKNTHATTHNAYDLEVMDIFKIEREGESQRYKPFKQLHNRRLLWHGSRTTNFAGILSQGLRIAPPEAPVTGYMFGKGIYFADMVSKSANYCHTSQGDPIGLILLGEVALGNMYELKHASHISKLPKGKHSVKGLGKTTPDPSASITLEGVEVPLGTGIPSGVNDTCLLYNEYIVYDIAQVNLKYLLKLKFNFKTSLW
PARP-1 enzyme (Homo sapiens (Human), UniProt P09874), sequence (P09874 whole entry): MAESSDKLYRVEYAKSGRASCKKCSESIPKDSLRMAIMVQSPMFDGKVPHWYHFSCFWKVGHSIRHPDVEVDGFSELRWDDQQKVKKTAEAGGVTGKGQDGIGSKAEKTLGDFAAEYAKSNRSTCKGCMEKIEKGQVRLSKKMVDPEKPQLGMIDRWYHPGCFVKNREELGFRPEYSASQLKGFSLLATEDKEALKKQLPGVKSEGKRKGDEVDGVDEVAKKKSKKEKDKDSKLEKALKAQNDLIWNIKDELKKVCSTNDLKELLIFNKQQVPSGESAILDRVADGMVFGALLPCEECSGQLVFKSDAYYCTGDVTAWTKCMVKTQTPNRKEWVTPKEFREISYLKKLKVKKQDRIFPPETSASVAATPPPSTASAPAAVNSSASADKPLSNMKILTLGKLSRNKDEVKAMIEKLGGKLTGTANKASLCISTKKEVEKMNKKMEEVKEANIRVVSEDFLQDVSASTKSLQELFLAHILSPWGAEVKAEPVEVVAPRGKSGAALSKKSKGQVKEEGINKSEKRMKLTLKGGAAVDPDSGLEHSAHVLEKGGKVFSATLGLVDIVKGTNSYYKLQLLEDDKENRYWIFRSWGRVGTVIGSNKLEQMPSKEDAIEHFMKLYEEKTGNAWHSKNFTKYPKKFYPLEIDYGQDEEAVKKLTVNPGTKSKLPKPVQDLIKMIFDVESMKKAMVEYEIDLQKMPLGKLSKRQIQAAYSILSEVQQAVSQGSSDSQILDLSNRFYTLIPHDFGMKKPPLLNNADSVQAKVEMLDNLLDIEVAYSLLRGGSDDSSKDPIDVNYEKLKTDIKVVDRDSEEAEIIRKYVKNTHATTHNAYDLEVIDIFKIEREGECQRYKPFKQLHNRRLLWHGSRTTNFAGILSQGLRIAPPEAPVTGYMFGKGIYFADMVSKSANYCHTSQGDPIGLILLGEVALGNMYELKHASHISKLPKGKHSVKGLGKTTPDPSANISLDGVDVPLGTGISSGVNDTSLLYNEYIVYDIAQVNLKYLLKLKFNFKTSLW

SMILES | SN-38 PF50 (MCF-7 Cell line) | Temozolomide PF50 (MCF-7 Cell line) | GI50 (MCF-7 Cell line) | IC50 (PARP-1 enzyme [1]; [3]) | IC50 (PARP-1 enzyme [2]) | SN-38 PF50 (HT-29 Cell line) | Temozolomide PF50 (HT-29 Cell line) | GI50 (HT-29 Cell line) | SN-38 PF50 (A549 cell line) | Temozolomide PF50 (A549 cell line) | GI50 (A549 cell line) | SN-38 PF50 (SK-OV-3 Cell line) | Temozolomide PF50 (SK-OV-3 Cell line) | GI50 (SK-OV-3 Cell line) | IC50 (PARP-1 enzyme [1])
COc1cccc2[nH]c(=O)c3c(c12)NCCC3.Cl [Example 2, 10-Methoxy-1,2,3,4-tetrahydrobenzo[h][1,6]naphthyridine-5(6H)-one hydrochloride] | 1.4 | 1.7 | 51 µM | 0.6 µM | 0.92 µM | 1.4 | >1.5 | 70 µM | 2.2 | 2.4 | 59 µM | 1.2 | >3.2 | 50 µM | 
CCN(CC)Cc1ccc2c3c(c(=O)[nH]c2c1)CCCN3 [Example 42, 8-[(Diethylamino)methyl]-1,2,3,4-tetrahydrobenzo[h][1,6]naphthyridine-5(6H)-one dihydrochloride] | 1.6 | 1.6 | 75 µM |  | 0.85 µM | 2.1 | >1.4 | 81 µM | 1.6 | 2.3 | > 100 µM | 1.6 | >2.1 | > 100 µM | 0.22 µM
COc1cc(CN(C)C)cc2[nH]c(=O)c3c(c12)NCCC3 [Example 72, 8-[(Dimethylamino)methyl]-10-methoxy-1,2,3,4-tetrahydrobenzo[h][1,6]naphthyridine-5(6H)-one dihydrochloride] | 2.6 | 1.7 | 54 µM |  | 0.09 µM | 2.2 | >5.2 | > 100 µM | 3.8 | 3.4 | > 100 µM | 1.8 | >10.2 | > 100 µM | 0.08 µM
CCOc1cc(CN2CCOCC2)cc2[nH]c(=O)c3c(c12)NCCC3 [Example 101, 10-Ethoxy-8-(morpholinomethyl)-1,2,3,4-tetrahydrobenzo[h][1,6]naphthyridine-5(6H)-one dihydrochloride] | 3.0 | 5.9 | 11 µM | 0.56 µM | 1.94 µM | 4.0 | >1.9 | 20 µM | 2.6 | 3.2 | 55 µM | 2.8 | >3.9 | 19 µM | 
